In patent EP4635500A1, “THERAPEUTIC AGENT FOR BACTERIAL INFECTION” (Sumitomo Pharma Co., Ltd., priority 2022, dated 2024):
Values after ≈ are worked out from the molar mass of the structure shown.

Legend:
[1] = test system: A. baumannii; assay: MIC, broth microdilution, CDC/FDA Antibiotic Resistance Isolate Bank (Example 7, Tables 9, 13, 14); format: cell-based, Acinetobacter baumannii
[2] = molecular target: OXA-23 (Acinetobacter baumannii, UniProt Q9L4P2); assay: Ki,app against β-lactamase (Example 1, Table 1); format: biochemical; settings: OXA-23, class D; 30 min preincubation; n.d.: too low inhibitor activity at 100 µmol/L; read-out: Ki app
Chain of OXA-23 (Q9L4P2 18-273): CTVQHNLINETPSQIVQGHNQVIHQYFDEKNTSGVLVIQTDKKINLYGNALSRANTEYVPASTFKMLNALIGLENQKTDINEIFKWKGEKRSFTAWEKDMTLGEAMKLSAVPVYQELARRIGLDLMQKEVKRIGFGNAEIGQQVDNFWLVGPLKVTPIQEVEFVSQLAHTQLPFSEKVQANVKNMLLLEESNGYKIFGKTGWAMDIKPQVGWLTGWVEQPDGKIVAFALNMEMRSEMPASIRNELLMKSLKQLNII
Procedure: After stirring, the resultants were preincubated for 30 minutes at 37°C. The reporter substrate solution was incubated at 37°C for 15 minutes or more, dispensed at 100 µL/well, and measured for a change in absorbance by a microplate reader at 37°C. For each measured concentration of the positive control and the inhibitor, an initial rate (µmol/L/sec) was determined from a time to be analyzed and a change in product amount. […] Ki,app for each inhibitor concentration was calculated from the slope, the inhibitor concentration, an enzyme concentration, Km, and kcat using Expression 2. If the initial rate was determined at two or more concentrations for each inhibitor and a plurality of Ki,app could be obtained, an average value was used as the Ki,app for the inhibitor. t−tc = Km /Vmax x ([Inhibitor]/Ki,app)x Ln[S]0 /[S] [formula] Ki,app = [Inhibitor]x Km /(kcatx[Enzyme])x 1/slope [formula]
The experiment was performed in duplicate.

[3] = test system: A. baumannii; assay: MIC, broth microdilution, 6 strains (Example 6, Table 7); format: cell-based

For `C[C@H]1COc2c(N3CCN(C)CC3)c(F)cc3c(=O)c(C(=O)O)cn1c23` [Levotloxacin], which MIC ([1]; A. baumannii KUB No. 5567, AR Bank #70, OXA-58, OXA-100) is on record?
The MIC was 4 µg/mL (≈ 11.1 µM).

And the MIC ([1]; A. baumannii KUB No. 5575, AR Bank #78, OXA-71)?
The MIC was 32 µg/mL (≈ 88.6 µM).

And the MIC ([1]; A. baumannii KUB No. 5580, AR Bank #83, OXA-23, OXA-69, NDM-1)?
Its MIC is 8 µg/mL (≈ 22.1 µM).

And the MIC ([1]; A. baumannii KUB No. 5585, AR Bank #88, OXA-64, NDM-1)?
Its MIC is 8 µg/mL (≈ 22.1 µM).

And the MIC ([1]; A. baumannii KUB No. 5598, AR Bank #101, OXA-24, OXA-65)?
The MIC was 16 µg/mL (≈ 44.3 µM).

And the MIC ([1]; A. baumannii KUB No. 5599, AR Bank #102, OXA-66)?
Its MIC is 8 µg/mL (≈ 22.1 µM).

And the MIC ([1]; A. baumannii KUB No. 5706, AR Bank #273, OXA-23, OXA-66)?
Its MIC is 64 µg/mL (≈ 177 µM).

What about the MIC ([1]; A. baumannii KUB No. 5707, AR Bank #274, OXA-66, OXA-72) of the same compound?
Its MIC is 16 µg/mL (≈ 44.3 µM).

What about the MIC ([1]; A. baumannii KUB No. 5708, AR Bank #275, OXA-23, OXA-66) of the same compound?
The MIC was 8 µg/mL (≈ 22.1 µM).

What about the MIC ([1]; A. baumannii KUB No. 5709, AR Bank #276, no carbapenemase genes (-)) of the same compound?
Its MIC is 16 µg/mL (≈ 44.3 µM).

What about the MIC ([1]; A. baumannii KUB No. 5710, AR Bank #277, OXA-24, OXA-65) of the same compound?
The MIC was 16 µg/mL (≈ 44.3 µM).

What about the MIC ([1]; A. baumannii KUB No. 5711, AR Bank #278, OXA-23, OXA-66) of the same compound?
The MIC was 8 µg/mL (≈ 22.1 µM).

What about the MIC ([1]; A. baumannii KUB No. 5712, AR Bank #279, OXA-23, OXA-66) of the same compound?
Its MIC is 8 µg/mL (≈ 22.1 µM).

And the MIC ([1]; A. baumannii KUB No. 5713, AR Bank #280, OXA-66)?
Its MIC is 16 µg/mL (≈ 44.3 µM).

And the MIC ([1]; A. baumannii KUB No. 5714, AR Bank #281, OXA-82)?
Its MIC is 8 µg/mL (≈ 22.1 µM).

And the MIC ([1]; A. baumannii KUB No. 5715, AR Bank #282, OXA-23, OXA-66)?
The MIC was 8 µg/mL (≈ 22.1 µM).

And the MIC ([1]; A. baumannii KUB No. 5716, AR Bank #283, OXA-23, OXA-66)?
The MIC was 16 µg/mL (≈ 44.3 µM).

And the MIC ([1]; A. baumannii KUB No. 5717, AR Bank #284, OXA-24, OXA-65)?
The MIC was 16 µg/mL (≈ 44.3 µM).

What about the MIC ([1]; A. baumannii KUB No. 5718, AR Bank #285, OXA-24, OXA-65) of the same compound?
Its MIC is 64 µg/mL (≈ 177 µM).

Which Ki [2] does the source give for `O=C(NC1CCNCC1)[C@@H]1CC[C@@H]2CN1C(=O)N2OS(=O)(=O)O` [Relebactam, relebactam] here?
Its Ki is 5.64 ± 0.522 µM.

Which MIC ([3]; A. baumannii strain with AMR gene ADC-25, OXA-23, OXA-66, TEM-ID, Carbapenem-resistant) does the source give for Colistin sulfate here?
The MIC was 1 µg/mL.

What about the MIC ([3]; A. baumannii strain with AMR gene ADC-25, OXA-66, TEM-1D, Carbapenem-susceptible) of the same compound?
Its MIC is 2 µg/mL.

And the MIC ([3]; A. baumannii strain with AMR gene ADC-25, XA-23, OXA-66, strA, strB, sul2, TEM-1D, Carbapenem-resistant)?
The MIC was 1 µg/mL.

And the MIC ([3]; A. baumannii strain with AMR gene NDM-1, OXA-64, Carbapenem-resistant)?
The MIC was 1 µg/mL.

And the MIC ([3]; A. baumannii strain with AMR gene OXA-23, OXA-69, TEM-1D, Carbapenem-resistant)?
The MIC was 1 µg/mL.

What about the MIC ([3]; A. baumannii strain with AMR gene OXA-24, OXA-65, Carbapenem-resistant) of the same compound?
The MIC was 1 µg/mL.
